# Assay results reported in ChEMBL document CHEMBL5120911, “Suncheonosides E-M and Benzothioate Derivatives from the Marine-Derived Streptomyces sp. ZSN77” (J Nat Prod, 2022).
# Counter-ions that a name gives are not always drawn.
# What was measured:
# Format in all cases: functional, cell-based
# PC-3 = experiment: Cytotoxicity against human PC-3 cells assessed as reduction in cell viability incubated for 72 hrs by SRB assay; conditions: PC-3, 72 h
# MDA-MB-231 = experiment: Cytotoxicity against human MDA-MB-231 cells assessed as reduction in cell viability incubated for 72 hrs by SRB assay; conditions: MDA-MB-231, 72 h
# HCT-116 = experiment: Cytotoxicity against human HCT-116 cells assessed as reduction in cell viability incubated for 72 hrs by SRB assay; conditions: HCT-116, 72 h
# BV-2 = experiment: Antiinflammatory activity in mouse BV-2 cells assessed as inhibition of LPS-induced NO production pretreated for 3 hrs followed by LPS stimulation measured after 24 hrs by microplate reader assay; conditions: dose 2.5-10 µM, time 27.0 hrs, DDE = dose-dependent effect
Structure (SMILES),IC50 (PC-3),IC50 (MDA-MB-231),IC50 (HCT-116),Activity (BV-2)
CCc1c(O)c(C)c(O[C@@H]2O[C@H](CO)[C@@H](O)[C@H](O)[C@H]2O)c(C(=O)SC)c1C(C)C,> 40 µM,> 40 µM,> 40 µM,–
COC(=O)c1c(O)c(C)c(O)c(C)c1C(C)C,> 40 µM,> 40 µM,7.3 µM,–
CSC(=O)c1c(C)c(C)c(O)c(C)c1O[C@@H]1O[C@H](CO)[C@@H](O)[C@H](O)[C@H]1O,> 40 µM,> 40 µM,> 40 µM,–
CCc1c(C)c(O)c(C)c(O)c1C(=O)SC,> 40 µM,> 40 µM,> 40 µM,–
COc1c(C)c(O)c(C)c(C(C)C)c1C(=O)SC,> 40 µM,36 µM,> 40 µM,Dde
CSC(=O)c1c(C(C)C)cc(O)c(C)c1O[C@@H]1O[C@H](CO)[C@@H](O)[C@H](O)[C@H]1O,> 40 µM,> 40 µM,> 40 µM,–
Cc1c(O)c(C)c(C(C)C)c(O[C@@H]2O[C@H](CO)[C@@H](O)[C@H](O)[C@H]2O)c1O,4.1 µM,> 40 µM,> 40 µM,Dde
CCc1c(C)c(O)c(C)c(O[C@@H]2O[C@H](COC(C)=O)[C@@H](O)[C@H](O)[C@H]2O)c1C(=O)SC,–,16 µM,> 40 µM,–
CSC(=O)c1c(O[C@@H]2O[C@H](CO)[C@@H](O)[C@H](O)[C@H]2O)c(C)c(OC(=O)c2c(O)c(C)c(O)c(C)c2C(C)C)c(C)c1C(C)C,–,11 µM,> 40 µM,–
CSC(=O)c1c(O[C@@H]2O[C@H](CO)[C@@H](O)[C@H](O)[C@H]2O)c(C)c(O)c(C)c1C(C)C,> 40 µM,> 40 µM,> 40 µM,Dde
CSC(=O)c1c(O)c(C)c(O)c(C)c1C(C)C,–,> 40 µM,3.9 µM,Dde
CCc1c(C)c(O)c(C)c(O[C@@H]2O[C@H](CO)[C@@H](O)[C@H](O)[C@H]2O)c1C(=O)SC,> 40 µM,> 40 µM,> 40 µM,Dde
COc1cccc2c1C(=O)c1c(O)c3c(c(O)c1C2=O)C[C@@](O)(C(=O)CO)C[C@@H]3O[C@H]1C[C@H](N)[C@H](O)[C@H](C)O1 [DOXORUBICIN HYDROCHLORIDE],0.4 µM,0.4 µM,–,–
CSC(=O)c1c(O[C@@H]2O[C@H](COC(C)=O)[C@@H](O)[C@H](O)[C@H]2O)c(C)c(O)c(C)c1C(C)C,–,> 40 µM,> 40 µM,–
Cc1c(O)cc(C(C)C)c(C)c1O,> 40 µM,> 40 µM,> 40 µM,–
